Laboratory results reported in patent US5538971A, “Benzoquinoxalines, pharmaceutical compositions containing them and their use in treating schizophrenia” (Sandoz Ltd., priority 1991, dated 1996).
Where two headings read alike, the source gives them in different places.

Columns and labels:
rat [1] = assay: inhibition of locomotor activity increase induced by a D-1 agonist; assay type: in vivo; conditions: for inhibition of locomotor activity increase (in words): rat, D-1 agonist 10 mg/kg p.o., for the invention's compounds doses of ca. 0.1 to 10 mg/kg p.o. or ca. 0.1 to 0.5 mg/kg s.c.
Protocol: In this test, the substance to be tested is applied one hour before the D-1 agonist, and the locomotor activity is measured under red light using photoelectric cells.

mouse = assay: apomorphine induced rearing test; assay type: in vivo
Protocol: Thus when administered to the mouse at doses of ca. 0.05 to ca. 1 mg/kg p.o., there is observed a significant inhibition of the rearing induced by subcutaneous administration of 0.5 mg/kg of apomorphine. In this test, each mouse is contained in a glass cylinder (20 cm high, 8 cm diameter) on absorbent cardboard and rearing is quantified by accumulating the time spent with both forepaws off the ground during three 1-minute periods at 10 minute intervals after apomorphine administration. […] This test detects both classical and atypical anti-psychotics and thus has predictive value for efficacy in schizophrenia.

rat [2] = assay: cataleptogenic activity (catalepsy); assay type: in vivo; conditions: rat, 1, 3.2 and 10 mg/kg p.o., observation period of 8 hours
Protocol: Furthermore at doses of ca. 1 to ca. 10 mg/kg p.o., the compounds according to the invention effect no catalepsy of the rat. Cataleptogenic activity is assessed as described by G. Stille et al. in Arzneimittel Forschung 15, 841-843 (1965). The criterion for catalepsy is fulfilled when posture retention time is longer than 10 seconds. In view of the lack of cataleptogenic activity, the risk that the compounds according to the invention might cause extra-pyramidal side effects is improbable.

[3] = target: T1, dopamine receptors of the D-1 type (Bos taurus, UniProt Q95136); assay: inhibition of the dopamine-induced stimulation of adenylate cyclase in homogenates of bovine retina; assay type: biochemical; conditions: calculated from IC50 according to Cheng and Prusoff, read-out: pKi, adenylate cyclase functional test (converted)
T1 construct: homogenates of bovine retina; from tissue; host or cells: bovine retina homogenate
T1 sequence (Q95136 whole entry): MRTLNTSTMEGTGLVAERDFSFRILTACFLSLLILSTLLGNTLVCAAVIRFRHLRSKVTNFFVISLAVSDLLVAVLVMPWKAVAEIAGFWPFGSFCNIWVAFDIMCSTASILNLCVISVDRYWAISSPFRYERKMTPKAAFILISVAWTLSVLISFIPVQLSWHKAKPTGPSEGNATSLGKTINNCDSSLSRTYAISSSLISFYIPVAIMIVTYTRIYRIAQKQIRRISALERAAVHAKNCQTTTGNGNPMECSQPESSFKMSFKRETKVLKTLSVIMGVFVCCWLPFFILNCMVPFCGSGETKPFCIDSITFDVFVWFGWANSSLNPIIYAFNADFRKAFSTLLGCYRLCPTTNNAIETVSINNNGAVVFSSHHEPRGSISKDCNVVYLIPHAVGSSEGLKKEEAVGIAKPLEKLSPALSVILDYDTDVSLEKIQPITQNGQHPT
Description: At concentrations of ca. 1 nmol/l to ca. […] the compounds according to the invention effect strong inhibition of the dopamine-induced stimulation of adenylate cyclase in homogenates of bovine retina [for the method see R. Markstein, Journal Neural. Transmission 51, 39-59 (1981)].
This activity also indicates the use of the compounds according to the invention in schizophrenia.

[4] = Mus musculus, po, 0.5 h, read-out: ED50, apomorphine-induced rearing
[5] = Mus musculus, sc, 0.5 h, read-out: ED50, apomorphine-induced rearing

CN1CC[C@@H](c2ccccc2)[C@@H]2c3cccc4[nH]c(Cl)c(c34)C[C@H]21 (stereo in doubt) [phenylergoline, (+)-(5R)[5β, 9α, 10α]-2-chloro-6-methyl-9-phenylergoline, reference compound]
inhibition at 2 mg/kg (rat [1]; Rattus norvegicus, Rat2, po, read-out: inhibition of locomotor activity increase): 45%

CN1CCN(C2=Nc3cc(Cl)ccc3Nc3ccccc32)CC1 [Clozapine, reference compound]
inhibition of locomotor activity increase (in words) (rat [1]): active
ED50 (mouse; po, 0.5 h, mouse, p.o., after 30 minutes, apomorphine 0.5 mg/kg s.c., read-out: ED50, apomorphine-induced rearing): 4.3 mg/kg
ED50 (mouse; sc, 0.5 h, mouse, s.c., after 30 minutes, apomorphine 0.5 mg/kg s.c., read-out: ED50, apomorphine-induced rearing): 0.66 mg/kg

Cc1cc(Cl)ccc1N1CCN(C)[C@@H]2Cc3cccc(O)c3C[C@H]21 [Example 2, (-)-[4aR,10aR]-l,2,3,4,4a,5,10,10a-octahydro-4-(4'-chloro-2'-methyl-phenyl)-1-methyl-benzo[g]quinoxaline-6-ol]
catalepsy (rat [2]): fails to produce catalepsy
inhibition at 1 mg/kg (rat [1]; Rattus norvegicus, po, read-out: inhibition of locomotor activity increase): 76%
inhibition of locomotor activity increase (in words) (rat [1]): inhibits the locomotor activity increase more potently
Ki [3]: 50.1 nM
ED50 (mouse; [4]): 0.38 mg/kg
ED50 (mouse; Mus musculus, po, 1 h, read-out: E50, apomorphine-induced rearing after subchronic treatment): 0.28 mg/kg
ED50 (mouse; Mus musculus, po, 1 h, read-out: ED50, apomorphine-induced rearing): 0.14 mg/kg
ED50 (mouse; [5]): 0.033 mg/kg
ED50 (mouse; Mus musculus, sc, 1 h, read-out: ED50, apomorphine-induced rearing): 0.04 mg/kg

O=C(CCCN1CCC(O)(c2ccc(Cl)cc2)CC1)c1ccc(F)cc1 [Haloperidol, reference compound]
ED50 (mouse; [4]): 0.03 mg/kg
ED50 (mouse; [5]): 0.008 mg/kg
